Two compounds from patent US20140107116A1, “BENZOTHIAZOLE DERIVATIVES FOR THE TREATMENT OF DIABETES” (MERCK SERONO SA, priority 2003, published 2014) can be followed below.

In this assay the test system is db/db mice. In words: Oral postprandial glycemia in db/db mice (experimental model of type II diabetes). The note with it: 100 mg/kg p.o., db/db mice fasted 20 h then fed, compared to vehicle group; for decrease in blood glucose level: 4 hrs after administration; for decrease in insulin level: serum insulin (ELISA) 4 hrs after administration. It counts as in vivo. The protocol:
In Vivo Assay: Experimental Model of Type II Diabetes (Oral Postprandial Glycemia in db/db Mice)
The following assay aims at determining the anti-diabetic effect of the test compounds of formula (I) in a model of postprandial glycemia in db/db mice, in vivo.
The assay was performed as follows:
A total of 18 db/db mice (about 8-9 weeks; obtained from IFFACREDO, l'Arbreste, France) were fasted during 20 hours.
3 groups, each consisting of 6 animals were formed: • Group 1: The animals were administered (per os) a dose of […] of vehicle. • Group 2: The animals were administered (per os) a dose of 50 mg/kg of the test compound according to formula (I). • Group 3: The animals were administered (per os) a dose of 100 mg/kg of the test compound according to formula (I).
After oral administration of the compounds of formula (I) solubilized or suspended in CarboxyMethylCellulose (0.5%), Tween 20 (0.25%) and water as vehicle, the animals had access to commercial food (D04, UAR, Villemoisson/Orge, France) ad libitum. The diabetic state of the mice was verified by determining the blood glucose level before drug administration. Blood glucose and serum insulin levels were then determined 4 hrs after drug administration.
The determination of the blood glucose level was performed using a glucometer (Precision Q.I.D., Medisense, Abbot, ref. 212.62.31).
The determination of the Insulin level was performed using an ELISA kit (Crystal CHEM, Ref. INSK R020).
Changes in blood glucose and serum insulin of drug treated mice were expressed as a percentage of control (group 1: vehicle treated mice).

As to `N#CC(c1ccnc(NCCc2cccnc2)n1)c1nc2ccccc2s1` (stereo not shown) [1,3-benzothiazol-2-yl(2-{[2-(3-pyridinyl)ethyl]amino}-4-pyrimidinyl)acetonitrile], the “decrease in blood glucose level” value is 38% and the “decrease in insulin level” value came out at 64%.

With `N#CC(c1ccnc(OCc2ccc(CN3CCOCC3)cc2)n1)c1nc2ccccc2s1` (stereo not shown) [1,3-benzothiazol-2-yl(2-{[4-(morpholin-4-ylmethyl)benzyl]oxy}-pyrimidin-4-yl)acetonitrile], the “decrease in blood glucose level” value is given as 22% and the “decrease in insulin level” value is listed as 36%.
